For 1 compound, Ki results are on record in US5817756A, “Pseudo- and non-peptide bradykinin receptor antagonists” (Scios Inc., priority 1995, dated 1998).

Experiment [1] deals with T1, human B2 receptor (Homo sapiens, UniProt P30411).
T1 construct: The HindIII/XbaI fragment of one full-length clone, 126A, was inserted into pcDNAI neo vector; expressed in transfected cells
T1 sequence (P30411 1-391): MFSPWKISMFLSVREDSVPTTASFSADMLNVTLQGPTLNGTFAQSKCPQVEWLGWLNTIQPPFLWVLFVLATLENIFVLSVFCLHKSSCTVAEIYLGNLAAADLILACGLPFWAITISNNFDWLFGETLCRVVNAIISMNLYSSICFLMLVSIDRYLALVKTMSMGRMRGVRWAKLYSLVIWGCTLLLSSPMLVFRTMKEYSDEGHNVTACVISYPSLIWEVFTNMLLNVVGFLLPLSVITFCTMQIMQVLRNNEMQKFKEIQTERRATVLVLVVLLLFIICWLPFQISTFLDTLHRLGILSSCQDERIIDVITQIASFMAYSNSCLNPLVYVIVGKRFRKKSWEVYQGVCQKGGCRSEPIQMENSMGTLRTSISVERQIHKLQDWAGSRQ
The experiment is described as follows: Whole cell binding assay, 3H-bradykinin. The conditions noted are these: Table 2, whole cells, read-out: Radioligand Binding, Ki Whole Cell 3HBK. How it is done:
Binding to confluent monolayers of transfected cells expressing the human B2 receptor (7,000 fmol/receptor/mg) grown in 24-well plates was measured by incubating cells in 1 ml cell binding buffer (PBS/Ca/Mg, 1% BSA, 0.14 mg/ml bacitracin) containing 10^-10 M ^3 H-bradykinin and various concentrations of unlabeled analogs for 4 to 10 hours at 4° C. Cells were washed three times with cell binding buffer and lysed in 0.1N NaOH. An aliquot of the lysate was counted to measure radioactivity bound.

The target in experiment [2] is T2, human bradykinin B2 receptor (Homo sapiens, UniProt P30411).
T2 construct: The HindIII/XbaI fragment of one full-length clone, 126A, was inserted into pcDNAI neo vector; expressed in transfected cells
T2 sequence (P30411 1-391): T1 sequence (P30411 1-391)
The experiment is described as follows: Radioligand binding, H2O.2 cell membranes, 3H-bradykinin. The conditions noted are these: Table 2, read-out: Radioligand Binding, Ki Human 3HBK. How it is done: (§1) A human bradykinin B2 receptor was expressed in CHO/K cells. Briefly, approximately 2×10^6 plaques from a human uterus λgt10 cDNA library (Clontech Laboratories; Palo Alto, Calif.) were screened using a PCR fragment containing the coding region of the rat B2 receptor. This probe was generated by random-primed synthesis in the presence of α[^32 P]dATP. Duplicate filters were hybridized overnight at 42° C. in 1M NaCl, 50 mM Tris pH 7.5, 5× Denhardt's, 200 μg/ml salmon sperm DNA, 1% SDS, and 20% formamide. The filters were washed at 65° C. in 1× SSC and 1% SDS. Coincident positively hybridizing plaques were purified and rescreened with the same probe and stringency conditions. EcoRI fragments of positive clones were inserted into Bluescript/KS II+vector (Stratagene; La Jolla, Calif.) for sequence determination.
(§2) The nucleotide sequence of the cloned human B2 receptors was determined using double-stranded DNA and the dideoxy chain termination method. Commercially available T3 and T7 oligonucleotides (USB; Cleveland, Ohio) and synthetic 21-mer oligonucleotides (DNA/RNA Synthesizer; applied Biosystems Inc.; Palo Alto, Calif.) from both the known rat sequence and the determined human sequence were used to identify the nucleotide sequence from the 5' untranslated end to the BglII site in the 3' untranslated end of the clone.
(§3) CHO/K cells were plated in 2 ml of growth medium (Ham's F12 with 10% FBS) per 6 well plate and incubated at 37° C., 5% CO2 until they were 60% confluent. For each well, 4, 12, and 16 μg of DNA was diluted in 100 μl Opti-MEM I reduced serum medium (Gibco/BRL; Gaithersburg, Md.). 12 μl of TransfectASE reagent (Gibco/BRL) was diluted in a separate aliquot of 100 μl Opti-MEM I. The DNA and TransfecASE solutions were combined, mixed gently, and incubated at 25° C. for 15 minutes. This solution was then diluted to 1 ml with Opti-MEM I. Each well was washed twice with Opti-MEM I and 1 ml of the DNA/TransfectAse complex was added to each well. After a 5 hour incubation at 37° C. and 5% CO2, 1 ml of Ham's F12 with 20% FBS was added to each well and cells were incubated overnight. Media was replaced with growth medium and incubated for additional 24 hours.
(§4) This assay measures the ability of a bradykinin antagonist compound to compete for binding to the human B2 receptor with tritiated bradykinin or tritiated NPC17731, a bradykinin analog which is known to bind the B2 receptor and act as a bradykinin antagonist.
(§5) H2O.2 cells were grown to confluency in Ham's F12 media containing 10% FBS and 500 μg/ml Geneticin. Growth media was aspirated and the monolayer washed once with Dulbecco's PBS without Ca^++ and Mg^++. Cells were scraped in Dulbecco's PBS and centrifuged at 2,000×g for 10 minutes. Pellets were resuspended in 25 mM TES, 1 mM 1,10-phenanthroline pH 6.8 buffer and homogenized using a Ploytron at setting 5 for 10 seconds. An aliquot was taken for a protein determination using a BioRad protein assay kit. Membranes were centrifuged at 48,000×g for 10 minutes at 4° C. Pellets were resuspended in the TES buffer with 0.1% BSA and 0.014% bacitracin. 0.5 ml aliquots were frozen in liquid N2 and stored at -80° C. for up to 2 weeks.
(§6) Membranes from H2O.2 cells previously prepared were thawed at 37° C. and diluted in 25 mM TES, […] 1,10-phenanthroline pH 6.8 containing BSA and bactiracin. […] Non-specific binding was determined with 1 μM bradykinin. The tubes were incubated 90 minutes at 25° C. and the assay was terminated by rapid vacuum filtration onto Whatman GF/B filters presoaked with 0.2% PEI for 3 hours followed by 2×3 ml aliquots of ice-cold 50 mM Tris, pH 7.4. Radioactivity was counted with a Beckman scintillation counter.

Experiment [3] has as its target T2, human bradykinin B2 receptor. The experiment is described as follows: Radioligand binding, H2O.2 cell membranes, 3H-NPC17731. The following applies: Table 2; 3H-NPC17731; read-out: Radioligand Binding, Ki Human 3H17731. As for the experimental part:
as §1, §2, §3, §4, §5, §6

What is called Ki is the dissociation constant of the complex between target and ligand, obtained from inhibition or displacement. `N=C(N)NCCC[C@@H](N)C(=O)N[C@@H](CCCNC(=N)N)C(=O)N1CCC2(CC1)C(=O)N(CC(=O)N1CCc3c(n(CC(=O)N[C@@H](CCCNC(=N)N)C(=O)O)c4ccccc34)C1)CN2c1ccccc1` [Compound 2]: the Ki in experiment [1] turned out to be 10400 nM; in experiment [2] it was 1800 nM; in experiment [3], 94 nM.
